From patent US12590118B2, “Salt and crystal form of steroid derivative regulator” (Shanghai Hansoh Biomedical Co., Ltd., priority 2019, dated 2026)

Experiment: Crystal form stability experiment (XRPD)
Format: physicochemical
Procedure: X-ray powder diffraction assay was carried out, and the obtained data was compared with the initial data.

**Q.** What does the source list for `C[C@@H]1C[C@H](C(=O)Cn2ccc(C#N)n2)[C@@]2(C)CC[C@H]3[C@@H](CC[C@@H]4C[C@](C)(O)CC[C@@H]43)[C@H]12` [Crystal form I, 1-(2-((3R,5R,8R,9R,10S,13S,14S,15R,17S)-3-Hydroxy-3,13,15-trimethylhexadecahydro-1H-cyclopenta[a]phenanthren-17-yl)-2-oxoethyl)-1H-pyrazole-3-carbonitrile]?
**A.** X-ray powder diffraction peak No. 1 (0 day (initial)): 7.3; X-ray powder diffraction peak No. 2 (0 day (initial)): 11.1; X-ray powder diffraction peak No. 3 (0 day (initial)): 11.9; X-ray powder diffraction peak No. 4 (0 day (initial)): 12.6; X-ray powder diffraction peak No. 5 (0 day (initial)): 16.7; X-ray powder diffraction peak No. 6 (0 day (initial)): 17.4; X-ray powder diffraction peak No. 7 (0 day (initial)): 20.2; X-ray powder diffraction peak No. 8 (0 day (initial)): 20.6; X-ray powder diffraction peak No. 9 (0 day (initial)): 21.9; X-ray powder diffraction peak No. 10 (0 day (initial)): 23.9; X-ray powder diffraction peak No. 11 (0 day (initial)): 38.4; X-ray powder diffraction peak No. 1 (25° C. RH75%, 5 days): 7.3; X-ray powder diffraction peak No. 2 (25° C. RH75%, 5 days): 11.0; X-ray powder diffraction peak No. 3 (25° C. RH75%, 5 days): 11.8; X-ray powder diffraction peak No. 4 (25° C. RH75%, 5 days): 12.5; X-ray powder diffraction peak No. 5 (25° C. RH75%, 5 days): 16.6; X-ray powder diffraction peak No. 6 (25° C. RH75%, 5 days): 17.3; X-ray powder diffraction peak No. 7 (25° C. RH75%, 5 days): 20.1; X-ray powder diffraction peak No. 8 (25° C. RH75%, 5 days): 20.5; X-ray powder diffraction peak No. 9 (25° C. RH75%, 5 days): 21.7; X-ray powder diffraction peak No. 10 (25° C. RH75%, 5 days): 24.1; X-ray powder diffraction peak No. 11 (25° C. RH75%, 5 days): 38.2; X-ray powder diffraction peak No. 1 (25° C. RH75%, 10 days): 7.3; X-ray powder diffraction peak No. 2 (25° C. RH75%, 10 days): 11.0; X-ray powder diffraction peak No. 3 (25° C. RH75%, 10 days): 11.8; X-ray powder diffraction peak No. 4 (25° C. RH75%, 10 days): 12.5; X-ray powder diffraction peak No. 5 (25° C. RH75%, 10 days): 16.6; X-ray powder diffraction peak No. 6 (25° C. RH75%, 10 days): 17.3; X-ray powder diffraction peak No. 7 (25° C. RH75%, 10 days): 20.1; X-ray powder diffraction peak No. 8 (25° C. RH75%, 10 days): 20.5; X-ray powder diffraction peak No. 9 (25° C. RH75%, 10 days): 21.8; X-ray powder diffraction peak No. 10 (25° C. RH75%, 10 days): 24.1; X-ray powder diffraction peak No. 11 (25° C. RH75%, 10 days): 38.2; X-ray powder diffraction peak No. 1 (25° C. RH75%, 30 days): 7.1; X-ray powder diffraction peak No. 2 (25° C. RH75%, 30 days): 11.2; X-ray powder diffraction peak No. 3 (25° C. RH75%, 30 days): 11.7; X-ray powder diffraction peak No. 4 (25° C. RH75%, 30 days): 12.4; X-ray powder diffraction peak No. 5 (25° C. RH75%, 30 days): 16.5; X-ray powder diffraction peak No. 6 (25° C. RH75%, 30 days): 17.2; X-ray powder diffraction peak No. 7 (25° C. RH75%, 30 days): 20.0; X-ray powder diffraction peak No. 8 (25° C. RH75%, 30 days): 20.7; X-ray powder diffraction peak No. 9 (25° C. RH75%, 30 days): 22.0; X-ray powder diffraction peak No. 10 (25° C. RH75%, 30 days): 24.0; X-ray powder diffraction peak No. 11 (25° C. RH75%, 30 days): 38.2; X-ray powder diffraction peak No. 1 (25° C. RH90%, 5 days): 7.2; X-ray powder diffraction peak No. 2 (25° C. RH90%, 5 days): 11.0; X-ray powder diffraction peak No. 3 (25° C. RH90%, 5 days): 11.8; X-ray powder diffraction peak No. 4 (25° C. RH90%, 5 days): 12.5; X-ray powder diffraction peak No. 5 (25° C. RH90%, 5 days): 16.5; X-ray powder diffraction peak No. 6 (25° C. RH90%, 5 days): 17.3; X-ray powder diffraction peak No. 7 (25° C. RH90%, 5 days): 20.1; X-ray powder diffraction peak No. 8 (25° C. RH90%, 5 days): 20.5; X-ray powder diffraction peak No. 9 (25° C. RH90%, 5 days): 21.7; X-ray powder diffraction peak No. 10 (25° C. RH90%, 5 days): 24.1; X-ray powder diffraction peak No. 11 (25° C. RH90%, 5 days): 38.3; X-ray powder diffraction peak No. 1 (25° C. RH90%, 10 days): 7.2; X-ray powder diffraction peak No. 2 (25° C. RH90%, 10 days): 11.0; X-ray powder diffraction peak No. 3 (25° C. RH90%, 10 days): 11.8; X-ray powder diffraction peak No. 4 (25° C. RH90%, 10 days): 12.5; X-ray powder diffraction peak No. 5 (25° C. RH90%, 10 days): 16.6; X-ray powder diffraction peak No. 6 (25° C. RH90%, 10 days): 17.3; X-ray powder diffraction peak No. 7 (25° C. RH90%, 10 days): 20.2; X-ray powder diffraction peak No. 8 (25° C. RH90%, 10 days): 20.5; X-ray powder diffraction peak No. 9 (25° C. RH90%, 10 days): 21.8; X-ray powder diffraction peak No. 10 (25° C. RH90%, 10 days): 23.8; X-ray powder diffraction peak No. 11 (25° C. RH90%, 10 days): 38.3; X-ray powder diffraction peak No. 1 (25° C. RH90%, 30 days): 7.2; X-ray powder diffraction peak No. 2 (25° C. RH90%, 30 days): 11.0; X-ray powder diffraction peak No. 3 (25° C. RH90%, 30 days): 11.8; X-ray powder diffraction peak No. 4 (25° C. RH90%, 30 days): 12.5; X-ray powder diffraction peak No. 5 (25° C. RH90%, 30 days): 16.6; X-ray powder diffraction peak No. 6 (25° C. RH90%, 30 days): 17.3; X-ray powder diffraction peak No. 7 (25° C. RH90%, 30 days): 20.1; X-ray powder diffraction peak No. 8 (25° C. RH90%, 30 days): 20.5; X-ray powder diffraction peak No. 9 (25° C. RH90%, 30 days): 21.8; X-ray powder diffraction peak No. 10 (25° C. RH90%, 30 days): 24.0; X-ray powder diffraction peak No. 11 (25° C. RH90%, 30 days): 38.2; X-ray powder diffraction peak No. 1 (40° C., 5 days): 7.2; X-ray powder diffraction peak No. 2 (40° C., 5 days): 11.0; X-ray powder diffraction peak No. 3 (40° C., 5 days): 11.8; X-ray powder diffraction peak No. 4 (40° C., 5 days): 12.5; X-ray powder diffraction peak No. 5 (40° C., 5 days): 16.6; X-ray powder diffraction peak No. 6 (40° C., 5 days): 17.3; X-ray powder diffraction peak No. 7 (40° C., 5 days): 20.1; X-ray powder diffraction peak No. 8 (40° C., 5 days): 20.5; X-ray powder diffraction peak No. 9 (40° C., 5 days): 22.1; X-ray powder diffraction peak No. 10 (40° C., 5 days): 23.8; X-ray powder diffraction peak No. 11 (40° C., 5 days): 38.3; X-ray powder diffraction peak No. 1 (40° C., 10 days): 7.3; X-ray powder diffraction peak No. 2 (40° C., 10 days): 11.0; X-ray powder diffraction peak No. 3 (40° C., 10 days): 11.8; X-ray powder diffraction peak No. 4 (40° C., 10 days): 12.5; X-ray powder diffraction peak No. 5 (40° C., 10 days): 16.6; X-ray powder diffraction peak No. 6 (40° C., 10 days): 17.3; X-ray powder diffraction peak No. 7 (40° C., 10 days): 20.2; X-ray powder diffraction peak No. 8 (40° C., 10 days): 20.5; X-ray powder diffraction peak No. 9 (40° C., 10 days): 21.9; X-ray powder diffraction peak No. 10 (40° C., 10 days): 23.8; X-ray powder diffraction peak No. 11 (40° C., 10 days): 38.2; X-ray powder diffraction peak No. 1 (40° C., 30 days): 7.2; X-ray powder diffraction peak No. 2 (40° C., 30 days): 11.0; X-ray powder diffraction peak No. 3 (40° C., 30 days): 11.8; X-ray powder diffraction peak No. 4 (40° C., 30 days): 12.5; X-ray powder diffraction peak No. 5 (40° C., 30 days): 16.6; X-ray powder diffraction peak No. 6 (40° C., 30 days): 17.3; X-ray powder diffraction peak No. 7 (40° C., 30 days): 20.1; X-ray powder diffraction peak No. 8 (40° C., 30 days): 20.5; X-ray powder diffraction peak No. 9 (40° C., 30 days): 22.0; X-ray powder diffraction peak No. 10 (40° C., 30 days): 23.7; X-ray powder diffraction peak No. 11 (40° C., 30 days): 38.2; X-ray powder diffraction peak No. 1 (60° C., 5 days): 7.1; X-ray powder diffraction peak No. 2 (60° C., 5 days): 10.9; X-ray powder diffraction peak No. 3 (60° C., 5 days): 11.7; X-ray powder diffraction peak No. 4 (60° C., 5 days): 12.4; X-ray powder diffraction peak No. 5 (60° C., 5 days): 16.5; X-ray powder diffraction peak No. 6 (60° C., 5 days): 17.2; X-ray powder diffraction peak No. 7 (60° C., 5 days): 20.0; X-ray powder diffraction peak No. 8 (60° C., 5 days): 20.7; X-ray powder diffraction peak No. 9 (60° C., 5 days): 22.0; X-ray powder diffraction peak No. 10 (60° C., 5 days): 24.0; X-ray powder diffraction peak No. 11 (60° C., 5 days): 38.2; X-ray powder diffraction peak No. 1 (60° C., 10 days): 7.2; X-ray powder diffraction peak No. 2 (60° C., 10 days): 10.9; X-ray powder diffraction peak No. 3 (60° C., 10 days): 11.7; X-ray powder diffraction peak No. 4 (60° C., 10 days): 12.4; X-ray powder diffraction peak No. 5 (60° C., 10 days): 16.5; X-ray powder diffraction peak No. 6 (60° C., 10 days): 17.2; X-ray powder diffraction peak No. 7 (60° C., 10 days): 20.1; X-ray powder diffraction peak No. 8 (60° C., 10 days): 20.7; X-ray powder diffraction peak No. 9 (60° C., 10 days): 22.0; X-ray powder diffraction peak No. 10 (60° C., 10 days): 24.0; X-ray powder diffraction peak No. 11 (60° C., 10 days): 38.2; X-ray powder diffraction peak No. 1 (60° C., 30 days): 7.2; X-ray powder diffraction peak No. 2 (60° C., 30 days): 11.0; X-ray powder diffraction peak No. 3 (60° C., 30 days): 11.8; X-ray powder diffraction peak No. 4 (60° C., 30 days): 12.5; X-ray powder diffraction peak No. 5 (60° C., 30 days): 16.6; X-ray powder diffraction peak No. 6 (60° C., 30 days): 17.3; X-ray powder diffraction peak No. 7 (60° C., 30 days): 20.1; X-ray powder diffraction peak No. 8 (60° C., 30 days): 20.4; X-ray powder diffraction peak No. 9 (60° C., 30 days): 21.8; X-ray powder diffraction peak No. 10 (60° C., 30 days): 23.8; X-ray powder diffraction peak No. 11 (60° C., 30 days): 38.2; X-ray powder diffraction peak No. 1 (Light, 5 days): 7.3; X-ray powder diffraction peak No. 2 (Light, 5 days): 11.0; X-ray powder diffraction peak No. 3 (Light, 5 days): 11.9; X-ray powder diffraction peak No. 4 (Light, 5 days): 12.5; X-ray powder diffraction peak No. 5 (Light, 5 days): 16.6; X-ray powder diffraction peak No. 6 (Light, 5 days): 17.3; X-ray powder diffraction peak No. 7 (Light, 5 days): 20.1; X-ray powder diffraction peak No. 8 (Light, 5 days): 20.6; X-ray powder diffraction peak No. 9 (Light, 5 days): 22.1; X-ray powder diffraction peak No. 10 (Light, 5 days): 23.9; X-ray powder diffraction peak No. 11 (Light, 5 days): 38.3; X-ray powder diffraction peak No. 1 (Light, 10 days): 7.3; X-ray powder diffraction peak No. 2 (Light, 10 days): 11.1; X-ray powder diffraction peak No. 3 (Light, 10 days): 11.9; X-ray powder diffraction peak No. 4 (Light, 10 days): 12.5; X-ray powder diffraction peak No. 5 (Light, 10 days): 16.7; X-ray powder diffraction peak No. 6 (Light, 10 days): 17.3; X-ray powder diffraction peak No. 7 (Light, 10 days): 20.2; X-ray powder diffraction peak No. 8 (Light, 10 days): 20.5; X-ray powder diffraction peak No. 9 (Light, 10 days): 21.9; X-ray powder diffraction peak No. 10 (Light, 10 days): 23.9; X-ray powder diffraction peak No. 11 (Light, 10 days): 38.3; crystal form stability by XRPD (in words) (light, 40° C., 60° C., 25° C./RH75%, 25° C./RH90%, 5, 10 and 30 days): No crystal form conversion had occurred
